According to patent US20060281695A1, “Control of parasites in animals by N-[(phenyloxy)phenyl]-1,1,1-trifluoromethanesulfonamide and N-[(phenylsulfanyl)phenyl]-1,1,1-trifluoromethanesulfonamide derivatives” (priority 2005, published 2006):

Key:
[1] = system: Brown Dog Tick (Rhipicephalus sanguineus); assay: Topical application on brown dog ticks, single dose screen (% mortality at 24 hours); format: in vivo; conditions: adult brown dog ticks, topical 1 μL in acetone on abdomen, single dose 10 μg per tick
Description: d) Topical Application On Brown Dog Ticks (Rhipicephalus sanguineus)
The aim of the test is to determine the presence of significant acaricidal activity in sample compounds or formulations when applied topically on brown dog ticks. A tick is defined as dead if it gives no apparent response when: (i) touched lightly and (ii) then observed for 1 minute. To assess the experimental compound for acaricidal activity, a single dose level is chosen based on known results from previous experiments with a commercially available active reference compound.
In the present example, both permethrin and fipronil were employed as reference compounds. The insect species tested was the Brown Dog Tick (Rhipicephalus sanguineus). Mixed sex adult ticks were used for tests. The strain used was cultured from a field strain and supplied as unfed adult ticks (mixed sex). Ticks were maintained in controlled conditions (temp. 18°±2° C., humidity 75±5% RH).
Test compounds (formulations or active ingredients) were stored in a refrigerator (5±1° C.) unless otherwise specified. The temperature was maintained at 25±1° C. and the humidity was ambient. The screening dose chosen was higher than that known kill 90% of insects (LD90) using the reference compound. In the case of topical application of active compounds on adult ticks, the reference compound was fipronil and the dose chosen was 10 μg of active per tick (=10 μg of fipronil/1 μl of acetone). Ticks were each treated on the abdomen with 1 μL of a single dose level of test sample in acetone; ten ticks were treated with solvent only (acetone) in each test. Tests were replicated 4 times (total of 40 ticks treated). Ticks were held in recovery containers maintained under appropriate rearing conditions for 24 hours. Mortality resulting from the treatments was recorded at 24 hours. Pooled 24 hour mortality data were converted to percentages.
(§1) In Table 7, provided below, are listed the Haemonchus contortus LD99 values (measured in micrograms/mL), the Ctenocephalides felis rapid screening values (measured in % mortality), the Ctenocephalides felis LC50 values (measured in micrograms/cm^2) and the Rhipicephalus sanguineus rapid screening values (measured in % mortality) for selected compounds in accordance with the present invention.

[2] = system: cat flea (Ctenocephalides felis); assay: Ctenocephalides felis adulticide assay: dose response on treated glass surface (LC50, 24 hours); format: in vivo; conditions: adult cat fleas, 24 h mortality, probit analysis
Description: (§2) The LC50 value is the concentration, expressed as μg/cm^2, that was required to kill 50% of the sample of cat fleas on contact with the tested compound. Certain tests are also reported as the percent of a sample of cat fleas that were killed at a concentration of 1.26 μg/cm^2 (“% mortality”), for the compounds tested in this way.
c) Ctenocephalides felis Adulticide Assay: C. felis dose response The purpose of this example is to determine the LC50 when cat fleas are contacted with a glass surface treated with sample compounds or formulations prepared as described above. Mortality of fleas is defined as follows: fleas are considered dead if they don't move or are on their sides and unable to walk or right themselves. LC50: Lethal Concentration 50— concentration of glass surface treatment at which 50% of the cat fleas are killed.
(§3) The test species employed was the cat flea (Ctenocephalides felis). The strain used was obtained from external suppliers as pupae and held in the laboratory under testing conditions until the adults had emerged. Fifteen (15) fleas were used in a minimum of four replicates for each dose level (total of 60 fleas per dose level). The insects were selected to be in the adult life stage, aged between 3 and 7 days post emergence.
The compounds to be tested were dissolved in acetone just prior to testing. Samples of compounds were stored in a refrigerator (5±1° C.) unless otherwise specified. During the mortality testing, the temperature was maintained at 25±1° C. Humidity was maintained at 75±5%. The base (area=159 mm^2) of a 100 mL glass Erlenmeyer (conical) flask provided the treatment surface. Flasks were pre-treated with Coatasil™ glass treatment to maximise bio-availability of test compounds by preventing them from binding to the glass surface.
Six dose levels (concentrations) of test sample, in the form of a serial dilution, were derived from a pilot study and covered a range that produced very low to very high mortality. The base of the 100 mL Erlenmeyer flask was treated with 0.5 mL of test sample in acetone and gently swirled. This volume was sufficient to cover the base of the flask. Flasks were left to dry for 24 hours before flea exposure. Adult cat fleas were lightly anaesthetised by cooling and then placed into a sorting chamber, which allowed fleas to revive and jump into the Erlenmeyer flasks. Fifteen (15) adult cat fleas were collected in each flask. The top of the flasks were then covered in Parafilm™ and small holes made to allow gas exchange. A 0.5 mL volume of acetone was applied to the base of an Erlenmeyer flask and the testing proceeded in the same manner described above. Cat fleas in the treatment containers were held under testing conditions for 24 hours. Mortality resulting from the treatments was recorded at 24 hours. […] 3rd ed. Cambridge Univ. Press, London (1971)].
as §1

Haemonchus contortus = Haemonchus contortus larvacidal (larval development) assay, LD99; format: in vitro
Description: The LD99 value is the dose, expressed as […], that was required to kill 99% of a sample of Haemonchus contortus.
a) Haemonchus Contortus Larvacidal Assay:
The effect of compounds on larval development was determined in the assay described by Gill et al. [International Journal of Parasitology 25:463-470 (1995)]. Briefly, in this assay, nematode eggs are applied to the surface of an agar matrix containing the test compound and then allowed to develop through to the L3, infective stage (6 days). The wells for each dilution of every compound (from highest to lowest concentration) are inspected to determine the well number corresponding to the lowest concentration at which development is inhibited in 99% of the nematode larvae present (LD99). Because well numbers correspond to a two-fold serial dilution of each compound, a titre (dilution factor) is generated as 2^n−1, where n is the well number. By dividing the highest concentration tested by the titre an LD99 value can be obtained, representing the concentration required to inhibit development in 99% of the nematode larvae present. The compounds supplied as solid and viscous liquids are dissolved in DMSO. Twelve serial one-half dilutions in DMSO solution are prepared from the stock solution, each of which is then diluted 1/5 with water. Aliquots (10 μl) of each dilution are transferred to the bioassay plates to give a final concentration range of 0.024 to 50 μg/ml.
as §1

[3] = system: cat flea (Ctenocephalides felis); assay: Ctenocephalides felis adulticide assay: single dose screen on treated glass surface (% mortality at 1.26 μg/cm^2, 24 hours); format: in vivo; conditions: for mortality at 1.26 µg/cm2, 1.26 µg/cm2: Ctenocephalides felis, 24 h, read-out: Ctenocephalides felis Mortality (%) 24 h; for Ctenocephalides felis Mortality (%) 24 h: in vivo
Description: as §2
b) Ctenocephalides felis Adulticide Assay: C.felis single dose screen
Mortality of fleas is the primary endpoint in the assay. […] The concentration chosen (1.26 μg/cm^2) is higher than that known to kill 90% of cat fleas (LC90) using the reference compound, permethrin.
as §3, with “against a single concentration” for “for each dose”, “(approximately” for “(total of”, “fleas).” for “fleas per dose level).”
The compounds to be tested were supplied as solids and were prepared in acetone as described below prior to testing. Samples were stored in a refrigerator (5±1° C.) unless otherwise specified.
During the mortality testing, the temperature was maintained at 25±1° C. Humidity was maintained at 75±5%. The base (area=159 mm^2) of a 100 mL glass Erlenmeyer (conical) flask provided the treatment surface. Flasks were pre-treated with Coatasil™ glass treatment to maximise bio-availability of test compounds by preventing them from binding to glass the surface. The base of the 100 mL Erlenmeyer flask was treated with 0.5 mL of test sample in acetone and gently swirled. This volume was sufficient to cover the base of the flask. Flasks were left to dry for 24 hours before flea exposure.
Adult cat fleas were placed into a sorting chamber, which allowed fleas to jump into the Erlenmeyer flasks. Fifteen (15) adult cat fleas were collected in each flask. The top of the flasks were then covered in Parafilm™ and small holes were made to allow gas exchange. A 0.5 mL volume of acetone as a solvent control was applied to the base of an Erlenmeyer flask and the testing proceeded in the same manner described above. […] Pooled 24 hour mortality data were converted to percentages and are summarized by Table 4, below.
as §1

Row | SMILES | Rhipicephalus sanguineus Mortality (%) 24 h [1] [%] | Ctenocephalides felis LC50 [2] [μg/cm^2] | Haemonchus contortus LD99 (Haemonchus contortus) [µg/mL] | mortality at 1.26 µg/cm2, 1.26 µg/cm2 [3] [%] | Ctenocephalides felis Mortality (%) 24 h [3] [%]
1 | O=S(=O)(Nc1ccc(Cl)cc1Oc1ccc(Cl)cc1Cl)C(F)(F)F [Compound 1, N-[4-Chloro-2-(2,4-dichlorophenoxy)phenyl]-1,1,1-trifluoromethanesulfonamide] | 68 | 0.32 | 1.5 | 100 | –
2 | O=S(=O)(Nc1ccc(Cl)cc1Oc1ccccc1C(F)(F)F)C(F)(F)F [Compound 2] | 28 | 0.19 | 5.5 | – | 100
3 | O=S(=O)(Nc1ccc(Cl)cc1Oc1ccc(F)cc1F)C(F)(F)F [Compound 4] | 83 | 0.27 | 12.0 | – | 98
4 | O=S(=O)(Nc1ccc(Cl)cc1Oc1ccc(Cl)cc1)C(F)(F)F [Compound 5] | – | 0.66 | 11.0 | – | 100
5 | O=S(=O)(Nc1cc(Cl)ccc1Oc1ccc(Cl)cc1Cl)C(F)(F)F [Compound 8] | – | 0.59 | 2.75 | – | 62
6 | O=S(=O)(Nc1cc(C(F)(F)F)ccc1Oc1cccc(C(F)(F)F)c1)C(F)(F)F [Compound 9] | 25 | 0.09 | 2.5 | – | 94
7 | O=S(=O)(Nc1ccc(Cl)cc1Sc1ccc(Cl)cc1)C(F)(F)F [Compound 12, N-[4-Chloro-2-((4-chlorophenyl)sulfanyl)phenyl]-1,1,1-trifluoromethanesulfonamide] | 50 | 0.15 | 2.8 | 100 | –
8 | O=S(=O)(Nc1ccc(Cl)cc1Oc1ccccc1F)C(F)(F)F [Compound 14] | 98 | 0.05 | 13.0 | – | 100
9 | O=S(=O)(Nc1ccc(Cl)cc1Sc1cccc(Cl)c1)C(F)(F)F [Compound 15] | – | 0.30 | 5.5 | – | 100
10 | O=S(=O)(Nc1ccc(Cl)cc1Oc1ccc(F)c(F)c1)C(F)(F)F [Compound 16] | – | 0.78 | 11.0 | – | 100
11 | O=S(=O)(Nc1ccc(Cl)cc1Sc1ccc(F)cc1)C(F)(F)F [Compound 20] | 95 | 0.13 | 13.0 | – | 100
12 | Cc1ccccc1Oc1cc(Cl)ccc1NS(=O)(=O)C(F)(F)F [Compound 21] | 90 | 0.12 | 15.0 | – | 100
13 | O=S(=O)(Nc1ccc(Cl)cc1Oc1cccc(F)c1)C(F)(F)F [Compound 25] | – | 0.73 | – | – | 100
14 | O=S(=O)(Nc1ccc(Cl)cc1Oc1ccc(F)cc1)C(F)(F)F [Compound 26] | – | 0.33 | – | – | 100
15 | O=S(=O)(Nc1cc(C(F)(F)F)ccc1Oc1ccc(F)cc1)C(F)(F)F [Compound 30] | – | 0.71 | – | – | 100
16 | CCc1ccccc1Oc1cc(Cl)ccc1NS(=O)(=O)C(F)(F)F [Compound 38] | – | 0.75 | – | – | 95
17 | O=S(=O)(Nc1ccc(C(F)(F)F)cc1Oc1cccc(C(F)(F)F)c1)C(F)(F)F [Compound 55] | – | 1.88 | – | – | 100
18 | O=S(=O)(Nc1ccc(Cl)cc1Sc1ccccc1)C(F)(F)F [Compound 59] | – | 0.97 | – | – | 100
19 | O=S(=O)(Nc1ccc(Cl)cc1Sc1ccccc1F)C(F)(F)F [Compound 68] | 55 | 0.59 | – | – | 100
